{"source": "patent US8911713B2", "about": "“Method for preventing or treating skin tumor” (Galderma Research & Development, priority 2010, dated 2014)", "system": "UV-induced skin tumor", "details": "for Tumor Yield (≧1 mm): average number of tumors per survivor; for Median Week to Tumor (≧1 mm): 100 μL/mouse, 5 days/wk, + 600 RBU/week UVR, 40 weeks + 12 weeks observation", "description": "Albino hairless SKH1-hr mice (36/sex/group) were treated for 40 weeks with UVR and brimonidine gel or vehicle according to the design in table 11. […] Topical treatments were performed approximately one hour before UVR on Monday, Wednesday and Friday of each week and approximately one hour after UVR Tuesday and Thursday of each week.", "note": "Where two headings read alike, the source gives them in different places.", "data": [{"smiles": "Brc1c(NC2=NCCN2)ccc2nccnc12", "note": "[Brimonidine, (5-Bromo-quinoxalin-6-yl)-(4,5-dihydro-1H-imidazol-2-yl)-amine]", "values": [{"measurement": "Reduction of tumor yield (≧1 mm) compared to the vehicle group", "setting": "0.18% topical + 600 RBU/week UVR", "value": 1.7, "unit": "fold"}, {"measurement": "Members of the group that acquired one or more qualifying tumors (≧1 mm) within the 52-week study period", "setting": "1% topical + 600 RBU/week UVR", "value": "less than one-half"}, {"measurement": "Reduction of tumor yield (≧1 mm) compared to the vehicle group", "setting": "1% topical + 600 RBU/week UVR", "value": 4.7, "unit": "fold"}, {"measurement": "Members of the group that acquired one or more qualifying tumors (≧1 mm) within the 52-week study period", "setting": "2% topical + 600 RBU/week UVR", "value": "less than one-half"}, {"measurement": "Reduction of tumor yield (≧1 mm) compared to the vehicle group", "setting": "2% topical + 600 RBU/week UVR", "value": 8.1, "unit": "fold"}, {"measurement": "Tumor Yield (≧1 mm)", "setting": "Group 2: 0.18% topical + 600 RBU/week UVR", "value": 2.40, "unit": "tumors per survivor"}, {"measurement": "Median Week to Tumor (≧1 mm)", "setting": "Group 2: 0.18% topical", "value": 48, "unit": "Week"}, {"measurement": "Tumor Yield (≧1 mm)", "setting": "Group 3: 1% topical + 600 RBU/week UVR", "value": 0.85, "unit": "tumors per survivor"}, {"measurement": "Median Week to Tumor (≧1 mm)", "setting": "Group 3: 1% topical", "value": ">52", "unit": "Week"}, {"measurement": "Tumor Yield (≧1 mm)", "setting": "Group 4: 2% topical + 600 RBU/week UVR", "value": 0.49, "unit": "tumors per survivor"}, {"measurement": "Median Week to Tumor (≧1 mm)", "setting": "Group 4: 2% topical", "value": ">52", "unit": "Week"}, {"measurement": "UV-induced skin tumor formation", "setting": "topical 0.18%, 1% and 2% + 600 RBU/week UVR", "value": "dose-dependent delay"}, {"measurement": "Sizes of tumors (tumor prevalence by size, FIG. 1)", "setting": "with increasing concentration, topical, sexes combined", "value": "the sizes of tumors were also reduced"}]}]}
